Values joined by “and” are separate entries in the source; they are usually repeats but may differ in a detail not shown here. Equal entries are not always repeated.
How the values were obtained:
[1] = tested on: HUVECs; experiment: angiogenic sprouting in a 3-D Collagen matrix (spheroid sprouting assay); format: cell-based; conditions: after 24 h of stimulation
Source text: (§1) In particular 5-methoxy-leoligin has been shown and exemplified in the appended examples as a potent activator of angiogenesis. […] Furthermore, the pro-angiogenic activity of 5-methoxy-leoligin has been tested in vivo in the chorioallantois membrane (CAM) assay of chicken embryos. […] These assays are recognized in the art to represent functional assays for in vitro and in vivo angiogenesis; see Methods in Endothelial cell biology, H G Augustin Ed.; 2004, Springer Lab Manual, ISBN 3-540-21397-X, Springer —Verlag Berlin, Heidelberg, N.Y..
These sprouts were analyzed after 24 h of stimulation and “cumulative sprout length” (CSL) of each sprout was quantified in μm.

[2] = tested on: human microvascular endothelial cells; experiment: capillary (endothelial tube) formation on matrigel substrate; format: cell-based; conditions: within 6 hrs of incubation, quantified by imaging software
Source text: as §1
Cells form tube-like structures between each other within 6 hrs of incubation. Those were quantified by an imaging software.

[3] = tested on: endothelial cells; experiment: wound scratch healing assay; format: cell-based; conditions: 1 and 10 μM, 9 hours
Experimental: The upper two images show the migration of endothelial cells into scratch area without treatment (left side) an in the presence of Lag2 (right side). The two images at the bottom are the control images of the scratch size at 0 hours.

[4] = tested on: chorioallantois membrane (CAM) of chicken embryos; experiment: chicken chorioallantoic membrane (CAM) assay; format: in vivo; conditions: chicken embryo CAM, each group 5 eggs, p<0.05
Source text: as §1
Each group consists of 5 eggs.

[5] = tested on: small muscle cells and endothelial cells; conditions: prior art, Reisinger et al. (2009); cited from earlier work
[6] = tested on: wound closure in pigs (Deutsches Landschwein); experiment: porcine model for time of wound closure, topical administration; format: in vivo, pig
Experimental: FIG. 9. […] N for control and Leoligin treated wounds is 5. […] Data assessment was conducted in a blinded manner.
For the large animal model 30-35 kg pigs (Deutsches Landschwein) was used. Animals were supplied by, kept, and experiments were performed at the Central Animal Testing Facility of the University of Innsbruck and the “Besondere Einrichtung für Biomedizinische Forschung” of the Medical University of Vienna. Pigs received a standard growth diet.
One hour prior to anaesthesia pigs received an intramuscular injection of 4 mg/kg Azaperon and 0.1 mg/kg Atropin. Full anaesthesia was achieved by intravenously applied 2-3 mg/kg Propofol and 15 mg Piritramid, followed by intubation of animals and ventilation with 30% O2. Muscle relaxation was achieved by an initial does of 8 mg Pancuronium and repetition with 0.2 mg/kg/h Pancuronium. Maintenance of anaesthesia was achieved by continuous infusion with 8-12 mg/kg/h Propofol and 15 mg Piritramid.
In the course of an experimental bypass surgery in the pig, after re-implantation of the graft (into the carotis artery) Leoligin (“Leo”) or NaCl control solution was added into the wound topically (the situs was filled with control solution (0.9% NaCl) or a solution containing leoligin at 100 μM. By optical inspection every 24 hours of blinded researchers the time to wound closure/healing was documented. Animals with infected wounds were excluded from the analysis.

[7] = tested on: venous bypass grafts; conditions: prior art, Reisinger (2009); cited from earlier work

Structure (SMILES) | number and length of angiogenic sprouts (cumulative sprout length) [1] | number and length of angiogenic sprouts (cumulative sprout length) ([1]; listed as LaG2) | capillary formation (tube-like structures) [2] | capillary formation (tube-like structures) ([2]; listed as LaG2) | migration of endothelial cells into scratch area / wound healing [3] | vascular density / blood vessel formation [4] | vascular density / blood vessel formation ([4]; listed as LaG2) | induction of cell death [5] | wound healing (in words) ([6]; leoligin 100 μM topical) | time until wound closure after surgery, mean value ([6]; leoligin 100 μM topical, N = 5) | time until wound closure after surgery, individual wounds ([6]; situs filled with solution containing leoligin at 100 μM, topical, inspection every 24 hours, blinded, listed as Leo) | effect on intimal hyperplasia of venous bypass grafts [7]
C/C=C(/C)C(=O)OC[C@H]1[C@@H](Cc2ccc(OC)c(OC)c2)CO[C@@H]1c1cc(OC)c(OC)c(OC)c1 [5-methoxy-leoligin, [(2S,3R,4R)-4-(3,4-dimethoxybenzyl)-2-(3,4,5-trimethoxyphenyl)tetrahydrofuran-3-yl]methyl-(2Z)-2-methylbut-2-enoat] | significantly enhanced both the length and number of angiogenic sprouts | significant increase of sprout number and lengths | significant increase in capillary formation | dose-depentently supported capillary formation | promotes the migration of endothelial cells into damaged tissue and stimulates wound healing | significantly increased the vascular density | dose-dependently supported embryonic blood vessel formation | – | – | – | – | –
C/C=C(/C)C(=O)OC[C@H]1[C@@H](Cc2ccc(OC)c(OC)c2)CO[C@@H]1c1ccc(OC)c(OC)c1 [leoligin, [(2S,3R,4R)-4-(3,4-dimethoxybenzyl)-2-(3,4-dimethoxyphenyl)tetrahydrofuran-3-yl]methyl (2Z)-2-methylbut-2-enoat] | – | – | – | – | – | – | – | did not induce cell death | can successfully be used to promote wound healing | 19.4 days | 19 days and 20 days and 16 days and 21 days (2×) | inhibits intimal hyperplasia of venous bypass grafts

From US20130053438A1, “PHARMACEUTICAL COMPOSITIONS COMPRISING LIGNANS AND THEIR DERIVATIVES FOR THE MEDICAL MANAGEMENT OF ANGIOGENESIS AND HYPOVASCULARITY” (Universitat Innsbruck, priority 2010, published 2013)
